Reference: patent publication US8800906B2, “Use of transforming growth factor-beta neutralizing antibodies and fusion proteins thereof in treating pain” (The Board of Trustees of the Leland Stanford Junior …, priority 2010, dated 2014)

Key:
SMAD3 [1] = target: SMAD3 (Homo sapiens, UniProt P84022); details: cited from earlier work
SMAD3 [2] = target: T1, SMAD3 (Rattus norvegicus, UniProt P84025); experiment: Excitability of DRG neurons with TGF-β and SIS3; type: cell-based; details: SIS3 3 μM
T1 construct: endogenous in cells; host or cells: primary DRG neurons
Protocol: SIS3 was dissolved in DMSO and diluted in culture media that was added at the time of plating with a final concentration of 3 μM. After one hour, the culture wells received TGF-β1 (0.2 ng/ml) for further incubation. Most cells were patched at 12-24 h, and both agents were refreshed daily if incubated for over 24 h.

TRPV1 = target: T2, TRPV1 (Rattus norvegicus, UniProt O35433); experiment: Capsaicin-induced inward current in DRG neurons; type: cell-based
T2 construct: endogenous in cells; host or cells: primary rat DRG neurons
Protocol: (§1) Electrophysiology. Whole-cell voltage patch-clamp recordings were conducted at room temperature (22-23° C.) on the stage of an inverted phase contrast microscope (Nikon Inc., Melville, N.Y.). The recording pipettes were pulled from borosilicate glass to give final resistances of […]. Data were acquired with Digidata interface (1200 series, Axon Instruments) and pClamp software (version 9.1, Axon Instruments). The concentrations of the electrode solutions (in mM) used in these experiments were as follows: for recording action potential, K^+ current and non-selective cationic current (pH adjusted to 7.3-7.4 using KOH): potassium gluconate (115), KCl (25), NaCl (5), HEPES (10), CaCl (1), EGTA (1.12) and ATP-Mg (2); for recording Na^+ current (pH adjusted to 7.3-7.4 using NaOH): CsF (110), MgCl2 (5), EGTA (11), NaCl (10) and HEPES (10). The cells were bathed in modified Tyrode saline consisting of (in mM): NaCl (135), KCl (5.4), MgCl2 (1), CaCl2 (2), NaH2PO3 (0.1), HEPES (10) and glucose (10). […] Action potentials were recorded in mode of I-clamp after observed membrane potential setting at I=0, and the currents were recorded by switching mode to v-clamp. The current signals were recorded to disk for off-line analysis using pCLAMP fit and Origin 7. Results were expressed as means±SE, n=number of cells. […]

[3] = system: TGF-β1, TGF-β2, and TGF-β3; details: cited from earlier work
DRG neurons = experiment: Patch-clamp excitability of DRG neurons from transgenic mice lacking glial TGF-β receptor response; type: cell-based, mouse
Excerpt: Transgenic mice. To decrease the response to TGF-β specifically in astrocytes, we took advantage of a dominant negative mutation in the type II TGF-β receptor that has been cloned into a bidirectional doxycycline-regulatable element (bi-tetO) that also drives enhanced green fluorescent protein (GFP). Andrews, Z. B. et al., 2006 Neurobiol Dis. 21, 568-75. TetO-TBR2-DN mice were obtained from Jackson Laboratories, Bar Harbor, Me. This line was crossed to a GFAP-tTA transgenic line (Jackson Laboratories). This line confers expression of tetO transgenes to astrocytes in the absence of doxycycline, and is induced by injuries, including stroke. DRGs were dissected from these mice and cultured as above.
(§2) Electrophysiology. Whole-cell voltage patch-clamp recordings were conducted at room temperature (22-23° C.) on the stage of an inverted phase contrast microscope (Nikon Inc., Melville, N.Y.). The recording pipettes were pulled from borosilicate glass to give final resistances of […]. Data were acquired with Digidata interface (1200 series, Axon Instruments) and pClamp software (version 9.1, Axon Instruments). The concentrations of the electrode solutions (in mM) used in these experiments were as follows: for recording action potential, K^+ current and non-selective cationic current (pH adjusted to 7.3-7.4 using KOH): potassium gluconate (115), KCl (25), NaCl (5), HEPES (10), CaCl (1), EGTA (1.12) and ATP-Mg (2); for recording Na^+ current (pH adjusted to 7.3-7.4 using NaOH): CsF (110), MgCl2 (5), EGTA (11), NaCl (10) and HEPES (10). The cells were bathed in modified Tyrode saline consisting of (in mM): NaCl (135), KCl (5.4), MgCl2 (1), CaCl2 (2), NaH2PO3 (0.1), HEPES (10) and glucose (10). The osmolality was maintained at 280-300 mOsm for the intracellular electrolyte and 300-330 mOsm for the extracellular bath solution. Agents such as capsaicin, capsazepine, TEA, 4AP, TTX etc were delivered through a valve control system (BPS-4, Scientific Instrument, New York). Prior to patch clamping a cell, the amplifier (Axopatch 200B, Axon Instruments, CA, USA) was zeroed so that any junction potential was balanced by an offset potential. High resistance (Gigaohm) seals were formed between the recording electrode and cell membrane and ruptured by suction using standard patch clamp recording methods. Action potentials were recorded in mode of I-clamp after observed membrane potential setting at I=0, and the currents were recorded by switching mode to v-clamp. The current signals were recorded to disk for off-line analysis using pCLAMP fit and Origin 7. Results were expressed as means±SE, n=number of cells.

rat DRG neurons = experiment: Whole-cell patch-clamp excitability of cultured DRG neurons; type: cell-based
Protocol: Dorsal Root Ganglia (DRG) neurons culture. Adult Sprague-Dawley rats (120-150 g) were sacrificed by decapitation. Thoracic and lumbar DRGs were then bilaterally dissected out and transferred to ice-cold Minimal Essential Medium (Gibco, Grand Island, N.Y.) supplemented with penicillin-streptomycin (2×, Gibco, Grand Island, N.Y.). After trimming axons and connective tissue, ganglia were transferred into enzyme solution, i.e., Hank's Balanced Salt Solution containing 5 mg/ml collagenase (Type 2, Worthington, Lakewood, N.J.), and incubated for three hours at 5% CO2-95% O2 37° C. A pellet was subsequently obtained by repeated trituration through flame-polished glass pipettes and centrifuged at 50×g for 10 minutes. Single cells were resuspended and plated onto poly-1-ornithine (Sigma) coated coverslips with neurobasal media (Gibco) supplemented with albumin solution (0.7%, Sigma), penicillin-streptomycin (2×), B27 with retinoic acid (2×, Invitrogen), beta-mercaptoethanol (0.11 mM, Gibco), mouse nerve growth factor ([…], Promega, Madison, Wis.) and L-glutamine (2×, Gibco). Recombinant TGF-β1 and TGF-β2 (Calbiochem, cat #616455, PF017) were dissolved in 10% ethanol in phosphate buffered saline (PBS) to yield a stock concentration of 10 ng/μl. TGF-β1 or TGF-β2 (10 ng/ml) was added to cultures at the beginning of incubation at 37° C. 5% CO2-95% O2.
Electrophysiology. Whole-cell voltage patch-clamp recordings were conducted at room temperature (22-23° C.) on the stage of an inverted phase contrast microscope (Nikon Inc., Melville, N.Y.). The recording pipettes were pulled from borosilicate glass to give final resistances of […]. Data were acquired with Digidata interface (1200 series, Axon Instruments) and pClamp software (version 9.1, Axon Instruments). The concentrations of the electrode solutions (in mM) used in these experiments were as follows: for recording action potential, K^+ current and non-selective cationic current (pH adjusted to 7.3-7.4 using KOH): potassium gluconate (115), KCl (25), NaCl (5), HEPES (10), CaCl (1), EGTA (1.12) and ATP-Mg (2); for recording Na^+ current (pH adjusted to 7.3-7.4 using NaOH): CsF (110), MgCl2 (5), EGTA (11), NaCl (10) and HEPES (10). The cells were bathed in modified Tyrode saline consisting of (in mM): NaCl (135), KCl (5.4), MgCl2 (1), CaCl2 (2), NaH2PO3 (0.1), HEPES (10) and glucose (10). The osmolality was maintained at 280-300 mOsm for the intracellular electrolyte and 300-330 mOsm for the extracellular bath solution. […] Action potentials were recorded in mode of I-clamp after observed membrane potential setting at I=0, and the currents were recorded by switching mode to v-clamp. The current signals were recorded to disk for off-line analysis using pCLAMP fit and Origin 7. Results were expressed as means±SE, n=number of cells.

Kv channels = experiment: Voltage-dependent K+ currents in DRG neurons; type: cell-based, rat
Protocol: as §2
TGF-β influences K^+ and Na^+ channel activity (FIGS. 6 and 7). Voltage-dependent potassium (Kv) currents play a fundamental role in determining neuronal excitability. […]

sodium channel = experiment: Sodium channel currents in DRG neurons; type: cell-based, rat
Protocol: as §1

conscious rats = experiment: Nocifensive behaviors to electrical stimulation of the pancreas after intrapancreatic infusion of TGF-β; type: in vivo; details: intra-pancreatic infusion, 400 ng per rat
Protocol: Intrapancreatic infusion of TGF-β. Rats were anesthetized with sodium nembutal (Abbott Laboratories, Chicago, Ill.) (50 mg/kg body weight, i.p.). The peritoneum was incised to expose the duodenum, and the duodenal loop was pulled out. The pancreatic duct entering the duodenum was identified under dissecting microscope, and a small niche was made into the duct with a 30-gauge needle. A polyethylene 10 tubing (0.61 mm outer diameter) (Becton Dickinson and Company, Franklin Lakes, N.J.) was guided into the duct and tied to secure its position. The position of the tube in the pancreatic duct was confirmed by observing bile flowing through the tubing. The common bile duct was ligated close to the liver to prevent entry of the injected substance into the liver. Similarly the duct was ligated near its entry into the duodenum. Four hundred μl (0.4 ml) per rat of 400 ng of TGF-β1 or TGF-β2 in 10% ethanol in phosphate buffered saline (PBS) or vehicle alone was injected through a syringe connected to the tubing. The tubing was carefully removed and bile flow from the liver into the duodenum was re-established. The abdominal cavity was closed with sutures and rats allowed to recover.
Behavioral Studies of Rats with Chronic Pancreatitis. […] The number of nocifensive behaviors observed during 5 min of stimulation period was counted. […]

SMAD3 [4] = details: cited from earlier work
[5] = system: spinal cord laminae I/II FOS positive cells; experiment: FOS immunochemistry in spinal cord after intrapancreatic TGF-β infusion and electrical stimulation; type: in vivo, rat; details: intra-pancreatic infusion 400 ng followed by ES
Protocol: FOS Immunochemistry. Eight rats were used for this experiment (TGF-β n=4; Vehicle n=4). TGF-β2 (400 ng) in 0.4 ml of 10% ETOH/PBS or vehicle alone were infused into pancreatic duct of rats. 24 hours later rats underwent noxious electrical stimulation of the pancreas (5 mA for 5 minutes). Thirty minutes later the rats were transcardially perfused with 150 ml of normal saline followed by ice cold 400 ml of 4% paraformaldehyde in 0.1M phosphate buffer (PB) pH 7.4. Spinal cord segments corresponding to DRG T8-T10 were identified, cut and post-fixed in 4% paraformaldehyde over night. The samples were then transferred to 30% sucrose in 0.1 M PB for 24 hours at 4° C. followed by freezing on dry ice with optimum cutting temperature (OCT). Frozen serial coronal sections (35 μm) were cut on a cryostat, collected in separate wells of a 24-well plate and stored floating in antifreeze at −20° C. We processed a total of 6 sections per segment. The sections were stained with a rabbit polyclonal primary antiserum directed against FOS (ab7963, Abcam, Cambridge Mass.), diluted (1:2000) in PB saline containing 3% normal goat serum and 0.1% Triton X-100, for 24 h at 4° C. […] The number of FOS positive cells in spinal cord laminae I/II were counted under 40× magnification from 6 slices per individual spinal segment per animal by two blinded investigators.

T1 sequence (P84025 whole entry): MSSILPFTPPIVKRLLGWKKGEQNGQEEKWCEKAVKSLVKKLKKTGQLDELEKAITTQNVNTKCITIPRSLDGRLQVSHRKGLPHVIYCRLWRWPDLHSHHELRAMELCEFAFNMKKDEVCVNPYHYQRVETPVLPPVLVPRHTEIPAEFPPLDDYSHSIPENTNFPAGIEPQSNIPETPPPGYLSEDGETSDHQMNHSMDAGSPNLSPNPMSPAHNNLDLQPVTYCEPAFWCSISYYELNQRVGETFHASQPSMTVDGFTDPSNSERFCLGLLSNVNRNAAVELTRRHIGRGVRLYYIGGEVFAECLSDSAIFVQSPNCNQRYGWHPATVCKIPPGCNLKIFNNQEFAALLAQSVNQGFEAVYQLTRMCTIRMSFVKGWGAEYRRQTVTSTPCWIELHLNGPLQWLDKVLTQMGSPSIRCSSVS
T2 sequence (O35433 whole entry): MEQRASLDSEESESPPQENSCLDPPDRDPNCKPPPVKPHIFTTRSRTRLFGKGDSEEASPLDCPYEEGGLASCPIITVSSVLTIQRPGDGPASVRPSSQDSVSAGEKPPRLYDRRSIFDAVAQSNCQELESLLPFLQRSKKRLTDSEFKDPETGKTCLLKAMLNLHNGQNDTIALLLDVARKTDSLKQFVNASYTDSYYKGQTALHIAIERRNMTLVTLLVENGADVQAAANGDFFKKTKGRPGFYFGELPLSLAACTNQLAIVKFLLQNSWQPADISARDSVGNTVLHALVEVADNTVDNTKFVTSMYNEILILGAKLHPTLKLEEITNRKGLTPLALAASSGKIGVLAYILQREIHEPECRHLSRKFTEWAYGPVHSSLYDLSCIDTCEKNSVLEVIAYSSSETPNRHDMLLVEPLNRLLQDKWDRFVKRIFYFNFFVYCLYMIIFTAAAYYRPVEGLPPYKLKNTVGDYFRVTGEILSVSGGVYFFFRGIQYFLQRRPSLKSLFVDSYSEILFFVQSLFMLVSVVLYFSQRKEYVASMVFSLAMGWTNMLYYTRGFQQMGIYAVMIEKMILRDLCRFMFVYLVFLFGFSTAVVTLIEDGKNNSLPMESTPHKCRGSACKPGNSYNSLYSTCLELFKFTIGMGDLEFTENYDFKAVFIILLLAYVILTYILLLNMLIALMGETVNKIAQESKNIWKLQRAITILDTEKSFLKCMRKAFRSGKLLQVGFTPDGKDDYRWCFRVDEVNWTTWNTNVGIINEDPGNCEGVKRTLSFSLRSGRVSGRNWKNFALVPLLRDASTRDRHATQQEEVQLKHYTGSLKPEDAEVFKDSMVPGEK
SMAD3 (Homo sapiens, UniProt P84022), sequence (P84022 whole entry): as the sequence (P84025 whole entry) above

Cc1cc2c(cc1C)CN(C(=O)/C=C/c1c(-c3ccccc3)n(C)c3ncccc13)CC2.Cl [SIS3]
production of extracellular matrix (SMAD3 [1]; TGF-β1-treated normal fibroblasts and scleroderma fibroblasts): blocked excessive production of extracellular matrix
Smad3 phosphorylation (SMAD3 [1]): suppresses Smad3 phosphorylation
decrease in RMP induced by TGFβ (SMAD3 [2]; TGF-β 10 ng/ml, 48 hours): prevented the decrease in RMP
TGF-β1 induced changes in frequency of action potentials at 2× rheobase current (SMAD3 [2]; TGF-β1 0.2 ng/ml): attenuate
TGF-β1 induced changes in resting membrane potential (RMP) (SMAD3 [2]; TGF-β1 0.2 ng/ml): attenuate
TGF-β1 induced changes in rheobase (SMAD3 [2]; TGF-β1 0.2 ng/ml): attenuate

Oc1cc2c(cc1O)CN(C(=S)NCCc1ccc(Cl)cc1)CCC2 [capsazepine, reference compound]
effect on capsaicin-induced inward current (TRPV1; middle sized neurons): suppressible

GC1008: humanized TGF-β-neutralizing monoclonal antibody
neutralization of TGF-β ligands/isoforms [3]: capable of neutralizing all three TGF-β isoforms

TGF-β
RMP (DRG neurons; transgenic mouse DRG preparations, 10 ng/ml): −49.7±5.5 mV
resting membrane potential (RMP) (rat DRG neurons; rat DRG cultures exposed to TGF-β, n=21): −48.8±7.6 mV
proportion of tested cells showing multiple action potentials (rat DRG neurons; rat DRG neurons): 43%
current pulse (rheobase) required for triggering an action potential (rat DRG neurons; rat DRG neurons, n=11): 0.15±0.09 nA
number of action potentials evoked by two times rheobase current stimulation (rat DRG neurons; rat DRG neurons, n=17): 2.75 Hz
tested neurons showing an absence of IA current (Kv channels; TGF-β treated neurons): 11 of 22
Itotal density (Kv channels; all Kv channels, DRG neurons in culture): did not result in a significant reduction
IA density (Kv channels; at +30 mV, n=10): 29.6±3.8 pA/pF
capsaicin induced current (TRPV1; neurons treated with TGF-β, n=17): 724.7±129.4 pA
density of TTXR current (sodium channel; n=7): 114.25±27.32
density of total INa (sodium channel; n=23): 216.12±15.01

TGF-β1: Recombinant TGF-β1 (Calbiochem)
rheobase (DRG neurons; transgenic mouse DRG): 0.03 nA
firing threshold (DRG neurons; transgenic mouse DRG, n=7): −35 mV
spikes (DRG neurons; transgenic mouse DRG, n=7): 2.8±1.5
behavioral response to noxious stimulation (electric stimulation, ES) (conscious rats): hyperalgesic behavioral response

NC(=O)c1ccc(-c2nc(-c3ccc4c(c3)OCO4)c(-c3ccccn3)[nH]2)cc1 [SB431542]
Smad3 phosphorylation (SMAD3 [4]): selective inhibition of Smad3 phosphorylation

B1: TGF-β2: Recombinant TGF-β2 (Calbiochem) (protein, UniProt P61812 303-414, looked up)
Transforming growth factor …: ALDAAYCFRNVQDNCCLRPLYIDFKRDLGWKWIHEPKGYNANFCAGACPYLWSSDTQHSRVLSLYNTINPEASASPCCVSQDLEPLTILYYIGKTPKIEQLSNMIVKSCKCS
modifications: Transforming growth factor beta-2
behavioral response to noxious stimulation (electric stimulation, ES) (conscious rats): hyperalgesic behavioral response
FOS expression in the spinal cord [5]: greater FOS expression
